Measured values taken from US20070178166A1, “PROCESSES FOR MAKING PARTICLE-BASED PHARMACEUTICAL FORMULATIONS FOR PULMONARY OR NASAL ADMINISTRATION” (priority 2005, published 2007).

Assay: Dry powder particle sizing using a Malvern Mastersizer
Assay type: physicochemical
Excerpt: The following materials were used in the examples: mannitol (Spectrum Chemicals, New Brunswick, N.J., unless otherwise indicated), TWEENTM 80 (Spectrum Chemicals, New Brunswick, N.J.), celecoxib (Onbio, Ontario, Canada), Plasdone-C 15 (International Specialty Products, Wayne, N.Y.), budesonide (Byron Chemical Company, Long Island, N.Y.), dipalmitoyl phosphatidylcholine (DPPC) (Chemi S.p.a., Milan, Italy, unless otherwise indicated), PLGA (Boehringer Ingelheim Fine Chemicals, Ingelheim, Germany), ammonium bicarbonate (Spectrum Chemicals, Gardenia, Calif.), methylene chloride (EM Science, Gibbstown, N.J.), Fluticasone propionate ([…]., Mumbai, India), and lactose (Pharmatose […], DMV International, The Netherlands). The TWEENTM 80 is hereinafter referred to as “Tween80.” The volume average diameter of lactose (Pharmatose […]) was determined to be approximately 68 μm by dry powder particle sizing using a Malvern Mastersizer (Malvern Instruments Ltd., United Kingdom).

OC[C@H]1O[C@@H](O[C@H]2[C@H](O)[C@@H](O)C(O)O[C@@H]2CO)[C@H](O)[C@@H](O)[C@H]1O (stereo partly shown) [lactose (Pharmatose 325M), lactose]
volume average diameter: approximately 68 μm
